Reference: patent US11498923B2 (Merck Sharp & Dohme Corp., priority 2017, dated 2022)
Where a name gives a salt, the structure may show the parent alone.

The molecules below were run against T1, human A2a receptor (Homo sapiens, UniProt P29274) (assay: A2a receptor competition binding assay (Scintillation Proximity)). Conditions: membranes from HEK293 cells expressing human A2a receptor; 0.5 nM tritiated ligand; Cheng-Prusoff; read-out: A2a Ki.
T1 construct: purchased Perkin-Elmer RBHA2AM400UA; host or cells: HEK293 cells, used as a membrane preparation
T1 sequence (P29274 whole entry): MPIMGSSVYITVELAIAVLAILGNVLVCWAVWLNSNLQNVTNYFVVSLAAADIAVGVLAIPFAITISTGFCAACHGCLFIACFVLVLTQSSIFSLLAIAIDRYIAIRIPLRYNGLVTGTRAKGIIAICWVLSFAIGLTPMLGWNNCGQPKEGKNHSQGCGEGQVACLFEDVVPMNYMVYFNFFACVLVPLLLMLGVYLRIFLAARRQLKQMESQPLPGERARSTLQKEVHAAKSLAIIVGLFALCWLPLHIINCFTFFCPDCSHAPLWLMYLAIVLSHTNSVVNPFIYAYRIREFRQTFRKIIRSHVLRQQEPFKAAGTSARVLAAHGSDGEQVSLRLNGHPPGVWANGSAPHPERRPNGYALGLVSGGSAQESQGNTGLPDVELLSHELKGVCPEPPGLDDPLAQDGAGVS
Experimental: Binding affinities of compounds of the invention for the human A2a receptor were determined in a competition binding assay using Scintillation Proximity technology. Thus, 0.3 μg of membranes from HEK293 cells expressing the human A2a receptor were incubated with a compound of the invention at concentrations ranging from 3000 nM to 0.15 nM in a reaction mixture containing also 0.5 nM of a tritiated form of 5-amino-7-[2-phenethyl]-2-(furan-2-yl)-7H-pyrazolo[4,3-e][1,2,4]triazolo[1,5-c]pyrimidine (the tritiated compound) and 100 μg of wheat germ agglutin-coated yttrium silicate SPA beads for one hour at room temperature with agitation. The beads were then allowed to settle to the bottom of the wells for 1 hr, after which the membrane-associated radioactivity was determined by scintillation counting in a TopCount microplate reader. Ki values were determined using the Cheng-Prusoff equation.
Summary of Materials and Methods Used in A2a Activity Determination:
HEK293 cells expressing the human, rat, dog or monkey adenosine 2a receptor (Purchased from Perkin-Elmer #RBHA2AM400UA).
The Tritiated compound was prepared according to published methods.
Wheat germ agglutinin-coated yttrium silicate SPA beads (GE Healthcare #RPNQ0023). Dilute to 25 mg/ml in assay buffer.
Assay Buffer was prepared using Dulbecco's calcium and magnesium free phosphate buffered saline+10 mMMgCl2
Adenosine deaminase from calf intestine, 10 mg/2 ml (Roche #10 102 105 001).
A2a antagonist standard (9-chloro-1-(2-furanyl)-[1,2,4]triazolo1,5-c]quinazolin-5-amine from Tocris Bioscience)
Make eight 1:3 serial dilutions in 100% DMSO from a 3 mM compound stock
Transfer 50 nl of compound into a 384-well OptiPlate (Perkin Elmer).
Typically, final concentrations of compound used in the assay ranged from 3000 nM to 0.152 nM.
Dilute a solution of the Tritiated compound to 1.25 nM in assay buffer. This is a 2.5× solution. The final concentration in the assay is 0.5 nM. Calculate the concentration by counting two 5 μl aliquots.
Use 0.25 ug of membrane/well. Dilute membranes to 9.7 μg/ml in assay buffer. Treat with 20 ug/ml adenosine deaminase (ADA) for 15 minutes at room temperature to degrade endogenous adenosine.
Use 100 μg/well wheat germ agglutinin-coated yttrium silicate SPA beads.
Mix ADA-treated membranes and SPA beads together for 30 min prior to assay.
To the Perkin-Elmer Optiplate-384 containing the compound titration add 20 μl of 2.5× solution of the Tritiated compound and 30 μl of the membrane-bead mixture. Incubate for one hour at room temperature with agitation.
Include total binding (assay buffer+1% DMSO) and non-specific binding (CGS15943, 1 μM) wells.
Allow the beads to settle for one hour.
A curve fitting program (i.e., Prism, Activity Base, Chemcart) is used to determine the EC50. The Ki value is calculated using the Cheng-Prusoff equation. Ki=EC50/(1+(radioligand concentration/Kd))
A Ki of 10 nM was found for `Nc1nc2c(F)cccc2c2nc(Cc3ccc(-c4ccc(F)cn4)cc3)cn12` [Ex-76, 7-fluoro-2-(4-(5-fluoropyridin-yl)benzyl)imidazo[1,2-c]quinazolin-5-amine] in this work. A Ki of 12 nM was found for `Nc1nc2c(F)cccc2c2nc(Cc3cccc(-c4ccc5nonc5c4)c3)cn12` [Ex-77, 2-(3-(benzo[c][1,2,5]oxadiazol-5-yl)benzyl)-7-fluoroimidazo[1,2-c]quinazolin-5-amine] in this work. A Ki of 120 nM was found for `COc1ccc(-c2ccc(Cc3cn4c(N)nc5c(F)cccc5c4n3)cc2)cc1` [Ex-78, 7-fluoro-2-((4′-methoxy-[1,1′-biphenyl]-4-yl)melhyl)imidazo[1,2-c]quinazolin-5-amine] in this work. A Ki of 2.4 nM was found for `COc1cccc2c1nc(N)n1cc(Cc3c(F)cccc3-c3ccc(C(F)(F)F)nc3)nc21` [Ex-79, 2-(2-fluoro-6-(6-(trifluoromethyl)pyridin-3-yl)benzyl)-7-methoxyimidazo[1,2-c]quinazolin-5-amine] in this work. A Ki of 11 nM was found for `COc1cccc2c1nc(N)n1cc(Cc3cccnc3-c3cncnc3)nc21` [Ex-80, 7-methoxy-2-((2-(pyrimidin-5-yl)pyridin-3-yl)methyl)imidazo[1,2-c]quinazolin-5-amine] in this work. A Ki of 14 nM was found for `Nc1nc2c(F)cccc2c2nc(Cc3cc(F)ccc3-c3cncnc3)cn12` [Ex-81, 7-fluoro-2-(5-fluoro-2-(pyrimidin-5-yl)benzyl)imidazo[1,2-c]quinazolin-5-amine] in this work. A Ki of 27 nM was found for `Nc1nc2c(F)cccc2c2nc(Cc3ccc(-c4cnccn4)cc3)cn12` [Ex-82, 7-fluoro-2-(4-(pyrazin-2-yl)benzyl)imidazo[1,2-c]quinazolin-5-amine] in this work. A Ki of 6.9 nM was found for `Nc1nc2c(F)cccc2c2nc(Cc3cc(F)ccc3-c3ccnc(N4CCOCC4)c3)cn12` [Ex-83] in this work. A Ki of 3.8 nM was found for `Nc1nc2c(F)cccc2c2nc(Cc3ccc(C(=O)Nc4ccccn4)cc3)cn12` [Ex-84, 4-((5-amino-7-fluoroimidazo[1,2-c]quinazolin-2-yl)methyl)-N-(pyridin-2-yl)benzamide] in this work. A Ki of 9.7 nM was found for `Nc1nc2c(F)cccc2c2nc(Cc3cccc(C(=O)Nc4ccccn4)c3)cn12` [Ex-85, 3-((5-amino-7-fluoroimidazo[1,2-c]quinazolin-2-yl)methyl)-N-(pyridin-2-yl)benzamide] in this work. A Ki of 44 nM was found for `Cn1c(NC(=O)c2ccc(Cc3cn4c(N)nc5c(F)cccc5c4n3)cc2)nc2ccccc21` [Ex-86, 5-amino-7-fluoro-2-(4-((1-methyl-1H-benzo[d]imidazol-2-yl)carbamoyl)benzyl)imidazo[1,2-c]quinazolin-6-ium formate] in this work. A Ki of 40 nM was found for `Nc1nc2c(F)cccc2c2nc(Cc3ccc(C(=O)NC4(c5ccccc5)CC4)cc3)cn12` [Ex-87, 4-((5-amino-7-fluoroimidazo[1,2-c]quinazolin-2-yl)methyl)-N-(1-phenylcyclopropyl)benzamide] in this work. A Ki of 84 nM was found for `Nc1nc2c(F)cccc2c2nc(Cc3ccc(C(=O)NCC(c4cccnc4)N4CCOCC4)cc3)cn12` (centres unmarked) [Ex-88, 4-((5-amino-7-fluoroimidazo[1,2-c]quinazolin-2-yl)methyl)-N-(2-morpholino-2-(pyridin-3-yl)ethyl)benzamide] in this work. A Ki of 6.3 nM was found for `COc1cccc2c1nc(N)n1cc(Cc3ccc(C(=O)Nc4ccccc4)cc3)nc21` [Ex-89, 4-((5-amino-7-methoxyimidazo[1,2-c]quinazolin-2-yl)methyl)-N-phenylbenzamide] in this work. A Ki of 66 nM was found for `Nc1nc2c(F)cccc2c2nc(Cc3ccc(C(=O)NCCN4CCOCC4)cc3)cn12` [Ex-90, 4-((5-amino-7-fluoroimidazo[1,2-c]quinazolin-2-yl)methyl)-N-(2-morpholinoethyl)benzamide] in this work. A Ki of 65 nM was found for `Nc1nc2c(F)cccc2c2nc(Cc3ccc(-c4nnc(CN5CCOCC5)o4)cc3)cn12` [Ex-91, 7-fluoro-2-(4-(5-(morpholinomethyl)-1,3,4-oxadiazol-2-yl)benzyl)imidazo[1,2-c]quinazolin-5-amine] in this work. A Ki of 13 nM was found for `Nc1nc2c(F)cccc2c2nc(Cc3cccc4c3OCCN4C(=O)Cc3ccccn3)cn12` [Ex-92, 1-(8-((5-amino-7-fluoroimidazo[1,2-c]quinazolin-2-yl)methyl)-2,3-dihydro-4H-benzo[b][1,4]oxazin-4-yl)-2-(pyridin-2-yl)ethan-1-one] in this work. A Ki of 2.5 nM was found for `COc1ccc(-c2cn(Cc3cn4c(N)nc5c(OC)cccc5c4n3)nn2)cc1` [Ex-93, 7-methoxy-2-((4-(4-methoxyphenyl)-1H-1,2,3-triazol-1-yl)methyl)imidazo[1,2-c]quinazolin-5-amine] in this work. A Ki of 150 nM was found for `Nc1nc2c(F)cccc2c2nc(Cn3cc(-c4cc(C(F)(F)F)cc(C(F)(F)F)c4)nn3)cn12` [Ex-94, 2-((4-(3,5-bis(trifluoromethyl)phenyl)-1H-1,2,3-triazol-1-yl)methyl)-7-fluoroimidazo[1,2-c]quinazolin-5-amine] in this work. A Ki of 6.8 nM was found for `Nc1nc2c(F)cccc2c2nc(Cn3cc(-c4ccc(OC(F)(F)F)cc4)nn3)cn12` [Ex-95, 7-fluoro-2-((4-(4-(trifluoromethoxy)-phenyl)-1H-1,2,3-triazol-1-yl)methyl)-imidazo[1,2-c]-quinazolin-5-amine] in this work. A Ki of 36 nM was found for `Nc1nc2c(F)cccc2c2nc(Cn3cc(-c4cccnc4)nn3)cn12` [Ex-96, 7-fluoro-2-((4-(pyridin-3-yl)-1H-1,2,3-triazol-1-yl)methyl)imidazo[1,2-c]quinazolin-5-amine] in this work. A Ki of 96 nM was found for `COc1ccc(N2CCN(CCc3cn(Cc4cn5c(N)nc6c(F)cccc6c5n4)nn3)CC2)cc1` [Ex-97, 7-fluoro-2-((4-(2-(4-(4-methoxyphenyl)piperazin-1-yl)ethyl)-1H-1,2,3-triazol-1-yl)methyl)imidazo[1,2-c]quinazolin-5-amine] in this work. A Ki of 6.7 nM was found for `Nc1nc2c(F)cccc2c2nc(Cn3cc(-c4ccc(-c5cccnc5)cc4)nn3)cn12` [Ex-98, 7-fluoro-2-((4-(4-(pyridin-3-yl)phenyl)-1H-1,2,3-triazol-1-yl)methyl)imidazo[1,2-c)quinazolin-5-amine] in this work. A Ki of 11.2 nM was found for `COc1cccc2c1nc(N)n1cc(Cn3cc(COC(C)=O)nn3)nc21` [Ex-99, (1-((5-amino-7-methoxyimidazo[1,2-c]quinazolin-2-yl)methyl)-1H-1,2,3-triazol-4-yl)methyl acetate] in this work. A Ki of 4.4 nM was found for `Nc1nc2c(F)cccc2c2nc(CCc3ccccc3)cn12` [Ex-100, 7-fluoro-2-phenethylimidazo[1,2-c]quinazolin-5-amine] in this work. A Ki of 8.5 nM was found for `Nc1nc2c(F)cccc2c2nc(CCc3ccccn3)cn12` [Ex-101, 7-fluoro-2-(2-(pyridin-2-yl)ethyl)imidazo[1,2-c]quinazolin-5-amine] in this work. A Ki of 3.8 nM was found for `COc1cccc2c1nc(N)n1cc(CCc3ccccc3)nc21` [Ex-102, 7-methoxy-2-phenethylimidazo[1,2-c]quinazolin-5-amine] in this work. A Ki of 26.4 nM was found for `COc1cccc2c1nc(N)n1cc(C(=O)c3ccccc3)nc21` [Ex-103, (5-amino-7-methoxyimidazo[1,2-c]quinazolin-2-yl)(phenyl)methanone] in this work. A Ki of 407 nM was found for `Nc1nc2ccccc2c2nc(-c3ccc(Br)cc3)cn12` [Ex-104, 2-(4-bromophenyl)imidazo[1,2-c]quinazolin-5-amine] in this work. A Ki of 160 nM was found for `Nc1nc2ccccc2c2nc(-c3cccc(Br)c3)cn12` [Ex-105, 2-(3-bromophenyl)imidazo[1,2-c]quinazolin-5-amine] in this work. A Ki of 7.1 nM was found for `Nc1nc2c(F)cccc2c2nc(-c3ccccc3)cn12` [Ex-106, 7-fluoro-2-phenylimidazo[1,2-c]quinazolin-5-amine] in this work. A Ki of 4.3 nM was found for `Nc1nc2c(F)cccc2c2nc(-c3ccccc3CO)cn12` [Ex-107, (2-(5-amino-7-fluoroimidazo[1,2-c]quinazolin-2-yl)phenyl)methanol] in this work. A Ki of 130 nM was found for `CS(=O)(=O)Nc1nc2c(F)cccc2c2nc(-c3ccccc3CN3CCN(c4ccccn4)CC3)cn12` [Ex-108, N-(7-fluoro-2-(2-((4-(pyridin-2-yl)piperazin-1-yl)methyl)-phenyl)-imidazo[1,2-c]-quinazolin-5-yl)-methanesulfonamide] in this work. A Ki of 2460 nM was found for `CC1(O)CCN(Cc2cn3c(N)nc4ccccc4c3n2)CC1` [Ex-109, 1-((5-aminoimidazo[1,2-c]quinazolin-2-yl)methyl)-4-methylpiperidin-4-ol] in this work. A Ki of 53.2 nM was found for `COc1cccc2c1nc(N)n1cc(CN3CCN(c4ccccc4)CC3)nc21` [Ex-110, 7-methoxy-2-((4-phenylpiperazin-1-yl)methyl)imidazo[1,2-c]quinazolin-5-amine] in this work.
